For the experiment, the system named is breast cancer cells. Put plainly: Breast cancer cell inhibition in vitro. It counts as cell-based. The note with it: by inhibiting RLIP.

With `O=C(N/N=C1/c2ccccc2-c2nc3nonc3nc21)c1ccccc1O` [TTUHSC-SS-A4], the “killing of breast cancer cells” value is “kill breast cancer cells at low concentrations”.
Take `N#Cc1nc(-c2ccccn2)c2c(c1-c1ccccc1)CCC2` [TTUHSC-SS-E4]: the “killing of breast cancer cells” value is “kill breast cancer cells at low concentrations”.
Then `c1ccc(-c2nnc(NCc3nc4ccccc4[nH]3)c3ccccc23)cc1` [TTUHSC-SS-C4], with “kill breast cancer cells at low concentrations”; and `O=c1cc(COc2cccc(-n3cnnn3)c2)c2ccccc2[nH]1` [TTUHSC-SS-C2], with “kill breast cancer cells at low concentrations”.
As for `[H]/N=C(\N)Nc1nc(-c2ccccc2)c2cc(F)ccc2n1` [TTUHSC-SS-B9], the “killing of breast cancer cells” value is given as “kill breast cancer cells at low concentrations”.

For the origin of these results see patent US20230414610A1, “THERAPIES FOR CANCER USING SMALL MOLECULES THAT BIND TO AND INHIBIT RAIL INTERACTING PROTEINS” (Texas Tech University System, priority 2020, published 2023).
